Laboratory results from PMC6125551 (Antimicrobial Agents and Chemotherapy, 2018).
Read-outs that look alike come from different tables or passages of the source. One block for each compound: values may come before it.

Key:
clinical [1] = details: male, human, 500 mg
Description: (§1) Study 1 (protocol 001) was a phase 1, randomized, double-blind, placebo-controlled, rising single- and multiple-dose study conducted at a single center that investigated relebactam in healthy adult men. The study was conducted in four parts, and all doses were administered intravenously (i.v.) in a total volume of 100 ml over 30 min.
(§2) In each panel, in all periods (except period 4), subjects were randomized to receive a placebo (n = 2) or relebactam (n = 6).
(§3) The plasma was mixed with a stabilizer containing morpholineethanesulfonic acid buffer and ethylene glycol before storage at −70°C. […] The assay utilized hydrophilic interaction chromatography (HILIC) and tandem mass spectrometry. Stable isotope-labeled internal standards were used for all three analytes.
(§4) Pharmacokinetic parameters were determined from plasma and urine concentration-time data by a noncompartmental approach using Phoenix WinNonlin, version 6.3 (Certara LP, Princeton, NJ, USA). The CEOI (concentration at end of infusion) and Tmax (time to maximum concentration) were generated from each analyte's plasma concentration-time data. All AUC values were calculated using the linear trapezoidal method for ascending concentrations and the log trapezoidal method for descending concentrations (calculation method options in WinNonlin). AUC0–∞ was calculated as the sum of AUC0–last and Cest, last/λz, where AUC0–last is the AUC from time 0 to the time of the last quantifiable concentration, Cest, last is the predicted concentration at the time of the last quantifiable concentration, and λz is the apparent terminal rate constant. […] At least three consecutive data points (excluding Cmax) in terminal phase were used for λz calculations. Clearance (CL) was calculated as dose/AUC0–∞.

[2] = Urine pharmacokinetics, single dose, study 2; details: both, human, CLR, range
Description: (§5) Study 2 (protocol 002) was a phase 1, randomized, double-blind, placebo-controlled study with three panels of healthy participants that included elderly men (panel L [n = 8]), elderly women (panel M [n = 8]), and adult women (panel N [n = 8]).
as §3
(§6) The amount of unchanged drug excreted in urine during a collection interval (Ae) was calculated by a cumulative sum of urine (concentration of unchanged drug × volume) per collection interval. The fraction of the dose excreted in urine (fe) was calculated as Ae/dose.

[3] = Urine pharmacokinetics, single dose, study 1 part I, healthy men; details: imipenem-cilastatin 500 mg alone, adult men from study 1
Description: as §2, §3, §6

[4] = for AUC(0-t) / half-life: male, human, in vivo
Description: (§7) Each panel was dosed sequentially, allowing for assessment of safety and tolerability before dose escalation.
as §3, §4

clinical [5] = details: female, human, plasma, intravenous
Description: as §5, §3, §4

clinical [6] = details: male, human, in vivo
Description: as §2, §3, §6

clinical [7] = details: male, human, in vivo; remark: listed apart in the source
Description: as §7, §3, §4

[8] = Plasma pharmacokinetics, single dose as 30-min i.v. infusion, study 1 part I, healthy men; details: for half-life / AUC(0-inf) / concentration at 30 min / clearance / Vd: male, human, plasma; for AUC(0-inf): AUC0–∞; for concentration at 30 min: CEOI; for clearance: CL; for Vd: Vz;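 as to all read-outs here: plasma analyte levels quantified by HILIC with tandem mass spectrometry, parameters derived noncompartmentally in WinNonlin, AUC by linear-up log-down trapezoidal rule, clearance taken as dose over AUC0–∞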
Description: as §1, §2, §3, §4

[9] = Safety and tolerability, single dose, study 1 part I; type: in vivo, human
Description: The safety analysis comprised the all-subjects-as-treated (ASaT) population, which included those participants who received ≥1 dose of investigational drug.

[10] = male, human, in vivo, 250 mg
Description: as §2, §3, §6

[11] = male, human, in vivo
Description: as §7, §3, §6

[12] = assumed for the calculation, no reference given; cited from earlier work
clinical [13] = details: male, human, in vivo, unbound CLR
Description: as §7, §3, §6

[14] = Plasma pharmacokinetics, single dose, study 2 (elderly men, elderly women, adult women)
Description: as §5, §3, §4

[15] = urine and plasma, intravenous, adult participants (men and women)
[16] = urine and plasma, intravenous, elderly participants (men and women)
[17] = intravenous, 25 mg, relebactam 25 mg alone, single dose
[18] = intravenous, 50 mg, relebactam 50 mg alone, single dose
[19] = intravenous, 250 mg, relebactam 250 mg alone, single dose
[20] = intravenous, 500 mg, relebactam 500 mg alone, single dose
[21] = intravenous, 1000 mg, relebactam 1,000 mg alone, single dose
[22] = intravenous, 1150 mg, relebactam 1,150 mg alone, single dose
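For CEOI in this document: plasma levels quantified by HILIC with tandem mass spectrometry and isotope-labeled internal standards, parameters derived noncompartmentally in WinNonlin, clearance equal to dose divided by AUC0-∞.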

AUC(0-inf) (clinical [1]; in vivo): 114 ± 13.5 µM·h | Vd (clinical [1]; in vivo): 16.5 ± 2.11 L | concentration at 30 min (clinical [1]; in vivo): 101 ± 16.6 µM | half-life (clinical [1]; in vivo): 0.92 ± 0.051 h | CL renal ([2]; in vivo, adult participants (men and women)): 157 to 168 mL/min | CL renal ([2]; in vivo, elderly participants (men and women)): 112 to 126 mL/min | fe, least squares mean (95% CI) [3]: 88.5 (82.1, 94.9) % | CL renal ([3]; male, human, in vivo, 500 mg, CLR, mean (95% CI)): 168 mL/min | CEOI ([4]; 0 mg relebactam + 500 mg imipenem/cilastatin, panel I, day 1, N 1): 144 µM | CEOI ([4]; 0 mg relebactam + 500 mg imipenem/cilastatin, panel J, day 1): 107 ± 6.53 µM | CEOI ([4]; 0 mg relebactam + 500 mg imipenem/cilastatin, panel K, day 1): 104 ± 10.4 µM | CEOI ([4]; 50 mg relebactam + 500 mg imipenem/cilastatin, panel C, day 1): 106 ± 12.0 µM | CEOI ([4]; 250 mg relebactam + 500 mg imipenem/cilastatin, panel F, day 1): 103 ± 20.0 µM | CEOI ([4]; 500 mg relebactam + 500 mg imipenem/cilastatin, panel H, day 1): 115 ± 21.9 µM | CEOI ([4]; 500 mg relebactam + 500 mg imipenem/cilastatin, panel J, day 1): 98.5 ± 14.6 µM | AUC(0-t) ([4]; AUC0-6, 0 mg relebactam + 500 mg imipenem/cilastatin, panel I, day 1, N 1): 167 µM·h | AUC(0-t) ([4]; AUC0-6, 0 mg relebactam + 500 mg imipenem/cilastatin, panel J, day 1): 110 ± 7.17 µM·h | AUC(0-t) ([4]; AUC0-6, 0 mg relebactam + 500 mg imipenem/cilastatin, panel K, day 1): 126 ± 37.9 µM·h | AUC(0-t) ([4]; AUC0-6, 50 mg relebactam + 500 mg imipenem/cilastatin, panel C, day 1): 127 ± 24.8 µM·h | AUC(0-t) ([4]; AUC0-6, 250 mg relebactam + 500 mg imipenem/cilastatin, panel F, day 1): 110 ± 14.2 µM·h | AUC(0-t) ([4]; AUC0-6, 500 mg relebactam + 500 mg imipenem/cilastatin, panel H, day 1): 136 ± 22.5 µM·h | AUC(0-t) ([4]; AUC0-6, 500 mg relebactam + 500 mg imipenem/cilastatin, panel J, day 1): 106 ± 17.2 µM·h | half-life ([4]; Terminal t1/2, 0 mg relebactam + 500 mg imipenem/cilastatin, panel I, day 1, N 1): 0.962 h | half-life ([4]; Terminal t1/2, 0 mg relebactam + 500 mg imipenem/cilastatin, panel J, day 1): 0.862 ± 0.088 h | half-life ([4]; Terminal t1/2, 0 mg relebactam + 500 mg imipenem/cilastatin, panel K, day 1): 0.908 ± 0.182 h | half-life ([4]; Terminal t1/2, 50 mg relebactam + 500 mg imipenem/cilastatin, panel C, day 1): 1.01 ± 0.142 h | half-life ([4]; Terminal t1/2, 250 mg relebactam + 500 mg imipenem/cilastatin, panel F, day 1): 0.998 ± 0.087 h | half-life ([4]; Terminal t1/2, 500 mg relebactam + 500 mg imipenem/cilastatin, panel H, day 1): 1.01 ± 0.146 h | half-life ([4]; Terminal t1/2, 500 mg relebactam + 500 mg imipenem/cilastatin, panel J, day 1): 0.874 ± 0.117 h
Structure (SMILES): CC1(C)C[C@@H]1C(=O)N/C(=C\CCCCSC[C@H](N)C(=O)O)C(=O)O [Cilastatin]

AUC(0-inf) (clinical [1]; plasma, intravenous): 140 ± 16.7 µM·h | clearance (clinical [1]; plasma, intravenous): 201 ± 21.4 mL/min | concentration at 30 min (clinical [1]; plasma, intravenous): 102 ± 17 µM | half-life (clinical [1]; plasma, intravenous): 1.13 ± 0.075 h | AUC(0-inf) (clinical [5]): 132 ± 18.9 µM·h | CL renal (clinical [6]; 500 mg): 106 ± 20.3 mL/min | CL renal (clinical [6]; 500 mg, CLR, mean (95% CI)): 108 mL/min | AUC(0-t) (clinical [7]): 138 ± 15.3 µM·h | clearance (clinical [7]): 178 ± 16.1 mL/min | CL renal [2, 15]: 98.6 to 108 mL/min | CL renal [2, 16]: 67.6 to 80.9 mL/min | half-life ([8]; intravenous, t1/2, observed, compared with relebactam): 1.1 h
Structure (SMILES): C[C@@H](O)[C@H]1C(=O)N2C(C(=O)O)=C(SCCN=CN)C[C@H]12 [Imipenem]

CLR [10]: 144 ± 11.0 mL/min | net active secretion, share of total clearance [11]: approximately 30% | CL renal (clinical [6]; 25 mg, CLR): 177 ± 29.4 mL/min | CL renal (clinical [6]; 50 mg, CLR): 166 ± 21.8 mL/min | CL renal (clinical [6]; 125 mg, CLR): 159 ± 19.6 mL/min | CL renal (clinical [6]; 125 mg, CLR, mean (95% CI)): 158 mL/min | CL renal (clinical [6]; 250 mg, CLR): 153 ± 16.5 mL/min | CL renal (clinical [6]; 500 mg, CLR): 129 ± 20.7 mL/min | CL renal (clinical [6]; 1000 mg, CLR): 127 ± 20.2 mL/min | CL renal (clinical [6]; 1150 mg, CLR): 137 ± 20.6 mL/min | half-life (clinical [7]; geometric mean terminal t1/2, range): 1.42 to 1.85 h | CL renal at 7 days (clinical [13]): 173 mL/min | CL renal [2, 15]: 106 to 158 mL/min | CL renal [2, 16]: 69.6 to 89.2 mL/min | increase in AUC0–∞ ([14]; adult women vs adult men (historic data from study 1)): 22% | increase in mean plasma exposure ([14]; elderly men vs adult men): 41% | increase in mean plasma exposure ([14]; elderly women vs adult women): 45% | increase in AUC0–∞ ([14]; elderly women vs elderly men): 25% | AUC(0-inf) [8, 17]: 7.97 ± 1.67 µM·h | concentration at 30 min [8, 17]: 4.42 ± 1.18 µM | clearance [8, 17]: 155 ± 30.6 mL/min | Vd [8, 17]: 18.3 ± 2.99 L | half-life ([8]; intravenous, 25 mg, t1/2, relebactam 25 mg alone, single dose): 1.39 ± 0.246 h | AUC(0-inf) [8, 18]: 15.6 ± 2.73 µM·h | concentration at 30 min [8, 18]: 9.04 ± 1.88 µM | clearance [8, 18]: 157 ± 23.8 mL/min | Vd [8, 18]: 20.5 ± 3.88 L | concentration at 30 min [8, 19]: 45.4 ± 7.27 µM | clearance [8, 19]: 148 ± 16.4 mL/min | Vd [8, 19]: 20.8 ± 2.77 L | half-life ([8]; intravenous, 250 mg, t1/2, relebactam 250 mg alone, single dose): 1.63 ± 0.129 h | AUC(0-inf) [8, 20]: 180 ± 25.7 µM·h | concentration at 30 min [8, 20]: 101 ± 17.6 µM | clearance [8, 20]: 135 ± 19.9 mL/min | Vd [8, 20]: 19.1 ± 2.64 L | half-life ([8]; intravenous, 500 mg, t1/2, relebactam 500 mg alone, single dose): 1.64 ± 0.141 h | AUC(0-inf) [8, 21]: 373 ± 51.9 µM·h | concentration at 30 min [8, 21]: 209 ± 28.6 µM | clearance [8, 21]: 130 ± 18.3 mL/min | Vd [8, 21]: 20.6 ± 3.46 L | half-life ([8]; intravenous, 1000 mg, t1/2, relebactam 1,000 mg alone, single dose): 1.84 ± 0.281 h | AUC(0-inf) [8, 22]: 396 ± 55.3 µM·h | concentration at 30 min [8, 22]: 208 ± 18.3 µM | clearance [8, 22]: 141 ± 18.8 mL/min | Vd [8, 22]: 21.6 ± 2.69 L | half-life ([8]; intravenous, 1150 mg, t1/2, relebactam 1,150 mg alone, single dose): 1.78 ± 0.225 h | half-life ([8]; intravenous, harmonic mean terminal half-life (t1/2), range, single dose, 25- to 1,150-mg dose range, healthy men): 1.35 to 1.8 h | half-life ([8]; iv, terminal half-life (t1/2), range, single- or multiple-dose i.v. administration over 30 min, independent of dose): 1.35 to 1.85 h | AUC0–∞ ([8]; relebactam 250 mg alone, single dose): 81.8 ± 9.07 µM·h
Structure (SMILES): O=C(NC1CCNCC1)[C@@H]1CC[C@@H]2CN1C(=O)N2OS(=O)(=O)O [Relebactam]
tolerability ([9]; alone or in combination with imipenem-cilastatin, across the dose ranges studied): well tolerated | participants reporting ≥1 drug-related AEs ([9]; single-dose cohort, part I, n = 16, with or without imipenem-cilastatin): 50% | free fraction [12]: 78%
